Source: patent US20130129720A1, “Combination Cancer Therapies with Wortmannin Analogs” (ONCOTHYREON INC., priority 2010, published 2013)

Assays:
[1] = aqueous solutions at 37° C. or 0° C. at neutral pH; cited from earlier work
[2] = in vivo; cited from earlier work
p110β = p110β (Homo sapiens, UniProt P42338); assay: cell based assays, p110β; details: in cell based assays
Source text: (§1) PX-866 is an pan-isoform inhibitor of Class I P1-3K that covalently binds to ATP binding site of the p110 catalytic subunit. Described herein are studies that illustrate rapid metabolism of PX-866 to a 17-hydroxy PX-866 derivative.

PIK3CB = PIK3CB (Homo sapiens, UniProt P42338); assay: in vitro kinase assay, PIK3CB; format: biochemical
Source text: (§2) Table 1 illustrates the potency of 17-hydroxy PX-866 metabolite in in vitro kinase assays: […]

p110α = p110α (Homo sapiens, UniProt P42336); assay: cell based assays, p110α; details: for IC50: in cell based assays
Source text: as §1

PIK3CD = PIK3CD (Homo sapiens, UniProt O00329); assay: in vitro kinase assay, PIK3CD; format: biochemical
Source text: as §2

PIK3CG = PIK3CG (Homo sapiens, UniProt P48736); assay: in vitro kinase assay, PIK3CG; format: biochemical
Source text: as §2

PIK3CA = PIK3CA (Homo sapiens, UniProt P42336); assay: in vitro kinase assay, PIK3CA; format: biochemical
Source text: as §2

[3] = Phase I trial: clinical pharmacokinetics
clinical = details: human, in vivo
advanced solid tumors = assay: Phase I trial of oral PX-866: response per RECIST; format: in vivo, human
Protocol: Patient response was evaluated according to Response Evaluation Criteria in Solid Tumors (RECIST). Briefly, all measurable lesions up to a maximum of five lesions, representative of all involved organs were identified as target lesions and recorded and measured at baseline. Target lesions were selected on the basis of their size (lesions with the longest diameter) and their suitability for accurate repeated measurements (either by imaging techniques or clinically). A sum of the longest diameter (LD) for all target lesions was calculated and reported as the baseline sum LD. The baseline sum LD was used as reference by which to characterize the objective tumor. All other lesions (or sites of disease) were identified as non-target lesions and were also be recorded at baseline. Measurements of these lesions were not required, but the presence or absence of each was noted throughout follow-up.
A Complete Response (CR) indicated a disappearance of all target lesions.

[4] = Phase I trial of oral PX-866: safety, DLT and MTD; format: in vivo, human
Protocol: This was an Open-label dose escalation study with expansion cohort at Maximal Tolerated Dose (MTD), 3+3 design and to test efficacy of 2 dosing schedules (intermittent and continuous). PX-866 was administered as an oral dose.
The primary and secondary objectives were tested using two different dosing regimens: 10 days of drug administration and daily administration for 28 days.
Intermittent schedule: 10 dose levels tested (0.5-16 mg). The starting dose level was 0.5 mg. Doses increased as follows: 100% escalation up to 2 mg, 50% escalation up to 4.5 mg, and approximately 30% escalation until the MTD is identified. The highest dose level at which no more than ⅙ patients experiences DLT was declared the MTD. The resulting dose levels were: 0.5, 1, 2, 3, 4.5, 6, 8, 10, 12 and 16 mg.
FIG. 1 illustrates the dosing schedule for intermittent dosing where PX-866 was given to patients on days 1-5 and 8-12 of a 28-day cycle.
Continuous dosing schedule: The starting dose was two dose levels below the MTD of intermittent dosing (8 mg) and subsequent dose levels was one or two dose levels (10 mg or 8 mg) below the MTD of intermittent dosing dependent on recommendation of the dose cohort review committee. FIG. 1 illustrates the dosing schedule for continuous dosing.

[5] = test system: A549 lung tumor xenografts; details: 2 mg/kg PX-866 daily treatment groups
Protocol: H460 and A549 lung tumor xenografts were implanted subcutaneously in nude mice according to previously described procedures. PX-866 was tested on both a daily (2 mg/kg) and every-other-day dosing (3 mg/kg) schedule alone, and in combination with a 10 mg/kg dose of docetaxel. The dosing schedule of PX-866 relative to docetaxel was varied to test the effect of docetaxel treatment prior to or subsequent to PX-866 treatment. A table of the following dosing regimens is as follows with animals in Group 1 receiving a daily vehicle: […]

[6] = test system: PI-3K pathway (p-mTOR and p-S6); assay: Phase I trial: pharmacodynamics in PBMCs stimulated ex vivo, FACS based assay; design: species or system human; details: PBMCs of treated patients
Protocol: The pharmacodynamic effects of PX-866 in patients treated in the phase I single agent study were assessed using isolated peripheral blood mononuclear cells (PBMCs) stimulated ex vivo via FACS based assay. […] The study provided Evidence for pathway inhibition lasting up to 3 days post-treatment.

p-AKT/T-AKT = assay: Phase I trial: p-AKT/T-AKT pharmacodynamics; format: in vivo, human; details: 3 of 4 patients at 8 mg, 4 hours after a single oral dose
CUHN015 tumors = assay: direct patient tumor model of SCCHN, CUHN015; format: in vivo, nude mice; details: PX-866 2 mg/kg 5 out of 7 days; docetaxel 20 mg/kg IP weekly
Protocol: Briefly, these models employed direct implantation of patients' tumors into nude mice according to Keysar et al., J Clin Oncol 28:15s, 2010 (suppl. abstruct 5558).
Animals were treated with PX-866 alone, and in combination with 20 mg/kg docetaxel dosed intraperitoneally (IP) on a weekly schedule. Saline treated animals and 20 mg/kg docetaxel dosed animals served as controls for the study.

Sequence of p110α (P42336 whole entry): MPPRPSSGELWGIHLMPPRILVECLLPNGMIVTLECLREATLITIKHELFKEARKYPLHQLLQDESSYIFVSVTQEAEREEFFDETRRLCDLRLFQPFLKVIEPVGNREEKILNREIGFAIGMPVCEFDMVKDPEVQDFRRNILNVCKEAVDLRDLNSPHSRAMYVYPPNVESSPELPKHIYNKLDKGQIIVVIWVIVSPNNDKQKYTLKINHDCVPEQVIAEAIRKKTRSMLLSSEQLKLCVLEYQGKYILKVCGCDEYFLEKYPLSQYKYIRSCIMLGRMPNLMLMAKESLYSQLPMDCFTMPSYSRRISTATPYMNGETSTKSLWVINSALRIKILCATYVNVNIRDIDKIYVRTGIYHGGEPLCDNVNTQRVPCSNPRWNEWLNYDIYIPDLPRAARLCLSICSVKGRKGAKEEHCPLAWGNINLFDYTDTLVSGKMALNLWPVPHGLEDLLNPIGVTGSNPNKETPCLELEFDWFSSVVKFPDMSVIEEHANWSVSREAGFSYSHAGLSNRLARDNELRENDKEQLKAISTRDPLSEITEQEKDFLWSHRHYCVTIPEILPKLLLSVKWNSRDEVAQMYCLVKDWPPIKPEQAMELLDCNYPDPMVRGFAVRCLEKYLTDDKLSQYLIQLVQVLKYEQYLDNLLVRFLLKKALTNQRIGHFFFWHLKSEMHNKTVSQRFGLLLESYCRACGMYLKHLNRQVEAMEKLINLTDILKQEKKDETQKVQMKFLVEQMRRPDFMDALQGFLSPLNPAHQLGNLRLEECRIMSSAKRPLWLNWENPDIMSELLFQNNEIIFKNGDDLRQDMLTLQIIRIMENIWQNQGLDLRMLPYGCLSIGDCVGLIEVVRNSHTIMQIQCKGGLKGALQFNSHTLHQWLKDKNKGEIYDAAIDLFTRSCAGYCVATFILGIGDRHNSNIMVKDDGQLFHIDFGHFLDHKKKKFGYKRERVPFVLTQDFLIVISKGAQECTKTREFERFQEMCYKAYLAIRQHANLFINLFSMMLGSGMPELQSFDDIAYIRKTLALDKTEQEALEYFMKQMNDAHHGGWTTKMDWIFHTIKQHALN
Sequence of p110α (P27986 whole entry partner): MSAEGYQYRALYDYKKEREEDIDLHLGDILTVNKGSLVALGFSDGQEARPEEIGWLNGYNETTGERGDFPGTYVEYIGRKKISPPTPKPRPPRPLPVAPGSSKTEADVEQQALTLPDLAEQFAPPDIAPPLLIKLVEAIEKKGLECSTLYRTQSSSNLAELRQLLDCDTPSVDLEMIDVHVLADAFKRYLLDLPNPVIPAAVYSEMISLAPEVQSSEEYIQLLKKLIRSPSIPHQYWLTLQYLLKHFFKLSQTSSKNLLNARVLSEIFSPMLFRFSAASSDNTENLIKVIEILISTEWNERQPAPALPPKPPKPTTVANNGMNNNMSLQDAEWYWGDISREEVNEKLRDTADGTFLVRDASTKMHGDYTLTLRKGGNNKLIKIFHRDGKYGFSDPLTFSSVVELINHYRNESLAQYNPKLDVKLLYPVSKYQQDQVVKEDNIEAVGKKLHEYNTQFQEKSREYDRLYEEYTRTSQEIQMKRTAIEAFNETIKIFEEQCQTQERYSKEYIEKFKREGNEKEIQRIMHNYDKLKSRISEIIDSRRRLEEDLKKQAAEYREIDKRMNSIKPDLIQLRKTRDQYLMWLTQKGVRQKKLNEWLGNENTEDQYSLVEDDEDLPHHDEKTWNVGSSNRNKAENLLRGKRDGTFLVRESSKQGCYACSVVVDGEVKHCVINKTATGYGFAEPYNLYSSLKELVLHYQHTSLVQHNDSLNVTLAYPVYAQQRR
Sequence of p110β (P42338 whole entry, canonical isoform): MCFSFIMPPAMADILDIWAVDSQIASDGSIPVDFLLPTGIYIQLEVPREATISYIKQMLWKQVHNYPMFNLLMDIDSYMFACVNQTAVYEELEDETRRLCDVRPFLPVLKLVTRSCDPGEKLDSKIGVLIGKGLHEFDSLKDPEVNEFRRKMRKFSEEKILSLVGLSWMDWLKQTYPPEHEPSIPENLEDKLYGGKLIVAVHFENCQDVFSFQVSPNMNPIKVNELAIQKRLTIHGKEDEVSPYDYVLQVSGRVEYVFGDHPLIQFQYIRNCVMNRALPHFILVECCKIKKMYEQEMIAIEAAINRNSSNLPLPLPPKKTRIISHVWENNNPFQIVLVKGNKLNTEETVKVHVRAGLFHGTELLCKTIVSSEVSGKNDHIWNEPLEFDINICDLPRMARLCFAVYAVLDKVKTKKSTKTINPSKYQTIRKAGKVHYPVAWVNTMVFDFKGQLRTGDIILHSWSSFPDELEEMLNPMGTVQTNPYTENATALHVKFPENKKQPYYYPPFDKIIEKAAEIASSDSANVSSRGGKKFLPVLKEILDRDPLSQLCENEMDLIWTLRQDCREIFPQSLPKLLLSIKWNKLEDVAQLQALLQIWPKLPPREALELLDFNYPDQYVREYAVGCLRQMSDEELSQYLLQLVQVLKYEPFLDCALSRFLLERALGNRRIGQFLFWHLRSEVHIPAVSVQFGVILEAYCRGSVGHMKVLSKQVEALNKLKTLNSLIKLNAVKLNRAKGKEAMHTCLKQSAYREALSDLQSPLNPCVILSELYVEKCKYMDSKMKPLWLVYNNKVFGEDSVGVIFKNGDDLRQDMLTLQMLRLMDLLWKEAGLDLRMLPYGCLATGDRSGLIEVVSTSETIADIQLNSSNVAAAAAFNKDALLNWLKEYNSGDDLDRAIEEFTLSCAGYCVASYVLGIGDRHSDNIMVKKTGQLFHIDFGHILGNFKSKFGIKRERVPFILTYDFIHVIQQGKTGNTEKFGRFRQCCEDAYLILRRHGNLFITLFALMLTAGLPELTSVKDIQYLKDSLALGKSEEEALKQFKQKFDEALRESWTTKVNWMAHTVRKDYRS
Sequence of p110β (P27986 whole entry partner, canonical isoform): as the sequence (P27986 whole entry partner) above
Sequence of PIK3CB (P42338 whole entry): as the sequence (P42338 whole entry, canonical isoform) above
Sequence of PIK3CB (P27986 whole entry partner): as the sequence (P27986 whole entry partner) above
Sequence of PIK3CA (P42336 whole entry): as the sequence (P42336 whole entry) above
Sequence of PIK3CA (P27986 whole entry partner): as the sequence (P27986 whole entry partner) above
Sequence of PIK3CD (O00329 whole entry): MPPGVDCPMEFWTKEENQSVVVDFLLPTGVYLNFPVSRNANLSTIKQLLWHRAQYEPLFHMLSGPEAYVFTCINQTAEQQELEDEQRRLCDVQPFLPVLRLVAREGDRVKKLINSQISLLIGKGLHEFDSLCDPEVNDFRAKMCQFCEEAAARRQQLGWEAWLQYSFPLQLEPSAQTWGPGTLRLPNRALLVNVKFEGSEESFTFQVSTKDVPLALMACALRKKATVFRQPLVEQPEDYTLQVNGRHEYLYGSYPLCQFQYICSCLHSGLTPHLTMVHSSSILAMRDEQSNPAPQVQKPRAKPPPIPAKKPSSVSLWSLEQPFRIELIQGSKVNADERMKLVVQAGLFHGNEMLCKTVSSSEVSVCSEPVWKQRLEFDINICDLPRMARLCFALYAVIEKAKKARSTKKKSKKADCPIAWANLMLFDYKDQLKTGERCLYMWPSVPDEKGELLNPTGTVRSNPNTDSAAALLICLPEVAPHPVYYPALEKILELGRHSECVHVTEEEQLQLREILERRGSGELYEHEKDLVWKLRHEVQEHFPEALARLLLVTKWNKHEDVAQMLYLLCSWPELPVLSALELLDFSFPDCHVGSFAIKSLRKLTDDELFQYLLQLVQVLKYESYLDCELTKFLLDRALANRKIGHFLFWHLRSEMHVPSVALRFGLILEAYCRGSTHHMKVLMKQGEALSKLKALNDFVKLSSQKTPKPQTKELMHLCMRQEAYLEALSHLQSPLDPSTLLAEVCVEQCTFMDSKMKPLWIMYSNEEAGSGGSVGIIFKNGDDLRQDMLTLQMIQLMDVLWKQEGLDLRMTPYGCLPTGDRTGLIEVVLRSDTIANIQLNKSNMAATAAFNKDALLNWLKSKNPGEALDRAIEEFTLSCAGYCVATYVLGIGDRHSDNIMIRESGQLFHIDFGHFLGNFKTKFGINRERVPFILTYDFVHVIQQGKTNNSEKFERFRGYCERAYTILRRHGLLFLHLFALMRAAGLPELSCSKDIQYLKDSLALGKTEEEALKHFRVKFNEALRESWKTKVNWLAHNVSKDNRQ
Sequence of PIK3CD (P27986 whole entry partner): as the sequence (P27986 whole entry partner) above

COC[C@H]1OC(=O)c2coc3c2[C@@]1(C)C1=C(C3=O)[C@@H]2CCC(=O)[C@@]2(C)C[C@H]1OC(C)=O [Wortmannin]
stability [1]: subject to decomposition by hydrolytic opening of the furan ring
toxicity [2]: liver and hematologic toxicity

C=CCN(C=C1C(=O)OC(COC)C2(C)C1=C(O)C(=O)C1=C2C(OC(C)=O)CC2(C)C(O)CCC12)CC=C (centres unmarked) [17-OH PX-866]
IC50 (p110β): 57 nM
IC50 (PIK3CB): 57 nM
increase in potency (p110α; cell proliferation assays versus p110α and p110β isoforms, relative to PX-866): 2-5 fold
IC50 (p110α): 14 nM
IC50 (PIK3CD): 131 nM
IC50 (PIK3CG): 148 nM
IC50 (PIK3CA): 14 nM
drug accumulation ([3]; 12 mg cohort, intermittent dosing): no evidence of drug accumulation
AUC in humans compared with mice ([3]; due to increased mean residence time in humans): exceeded AUC in mice
Cmax in humans compared with mice ([3]; mice treated at an efficacious dose of PX-866 (2 mg/kg)): equal to or exceed peak levels observed in mice
AUC(0-t) (clinical; 8 mg): 4.22 ng·h/mL
Cmax (clinical; 8 mg): 1.14 ng/mL
half-life (clinical; 8 mg): 3.62 h
Tmax (clinical; po): 0.67 to 1.07 h

C=CCN(/C=C1/C(=O)O[C@H](COC)[C@@]2(C)C1=C(O)C(=O)C1=C2[C@H](OC(C)=O)C[C@]2(C)C(=O)CC[C@@H]12)CC=C [PX-866, Acetic acid 4-diallylaminomethylene-6-hydroxy-1-α-methoxymethyl-10β,13β-dimethyl-3,7,17-trioxo-1,3,4,7,10,11β,12,13,14α,15,16,17-dodecahydro-2-oxa-cyclopenta[α]phenanthren-11-yl ester]
Disease stabilization, patients (advanced solid tumors; continuous dosing): 71%
Disease stabilization, patients (advanced solid tumors; intermittent dosing): 16%
IC50 (p110β): 88 nM
IC50 (PIK3CB): 88 nM
IC50 (p110α): 39 nM
IC50 (PIK3CD): 124 nM
IC50 (PIK3CG): 198 nM
IC50 (PIK3CA): 39 nM
ALT/AST elevation ([4]; continuous dosing): ALT/AST elevation was observed
Most common adverse events (AEs) ([4]; continuous dosing): diarrhea, nausea, vomiting, headache and fatigue
DLT, patients ([4]; continuous dosing, 10 mg per day): 2/3
Most common adverse events (AEs) ([4]; intermittent dosing): diarrhea, nausea, vomiting, and constipation
toxicity in patients receiving >2 cycles ([4]; intermittent dosing schedule): No significant increase in toxicity
Dose limiting toxicity (DLT), patients ([4]; intermittent dosing, 16 mg per day): 2/5
Maximal Tolerated Dose (MTD) for continuous dosing ([4]; oral, daily for 28 days): 8 mg per day
Maximal Tolerated Dose (MTD) for intermittent dosing ([4]; oral, days 1-5 and 8-12 of a 28-day cycle): 12 mg per day
mortality [5]: Increased mortality
duration of pathway inhibition post-treatment [6]: up to 3 days
conversion of parent to 17-OH metabolite ([3]; oral, patients): rapid conversion
plasma level of parent ([3]; oral, patients, with rare exceptions): below the limits of detection
decrease in p-AKT/T-AKT (p-AKT/T-AKT): ≥ 60%

CC(=O)O[C@@]12CO[C@@H]1C[C@H](O)[C@@]1(C)C(=O)[C@H](O)C3=C(C)[C@@H](OC(=O)[C@H](O)[C@@H](NC(=O)OC(C)(C)C)c4ccccc4)C[C@@](O)([C@@H](OC(=O)c4ccccc4)[C@H]21)C3(C)C [docetaxel, (2R,3S)—N-carboxy-3-phenylisoserine,N-tert-butyl ester, 13-ester with 5β-20-epoxy-1,2α,4,7β,10β,13α-hexahydroxytax-11-en-9-one 4-acetate 2-benzoate, trihydrate]
tumor growth (CUHN015 tumors): no effect on tumor growth
